Measured values taken from patent publication US12568960B2, “Adjuvant combinations as foliar uptake accelerator for herbicidal compositions” (Bayer Aktiengesellschaft, priority 2019, dated 2026).
Blank lines part the entries; values can stand above or below the molecule they belong to.

Experiments:
cuticula of apple leaves = experiment: Membrane (cuticle) penetration test
Procedure: The properties of the adjuvant combinations according to the invention as penetration enhancers were measured in a membrane penetration test on the cuticula of apple leaves.
Determination of bioavailability of various herbicides, plant growth regulators (PGRs) and safeners by cuticle penetration test.
The leaf cuticles were isolated enzymatically as described in the literature. The stomata-free cuticles were first dried under air and introduced into stainless steel diffusion cells. After the application of the test liquids to the original top side of the leaf and evaporation of liquid, the diffusion cells were transferred into thermostat blocks and loaded with water. At regular intervals, aliquot samples were taken, and the amount of active ingredient diffused was determined by means of HPLC. […] Detection was effected with a DAD detector. The results given in each case are the geometric penetration averages at the average measurement times. According to the variance, 10 repeat measurements were conducted.
Typically, a spray solution of the active ingredient (0.5 g of active ingredient/l) was produced. An aliquot was applied to an apple cuticle and left to dry. The operation was repeated 10 times. The amount absorbed through the cuticles in the uptake solution is determined by HPLC as described above. The measurements were made after 0, 6, 12, 24, 36 or 48 h.

[1] = Dynamic surface tension, bubble pressure method; assay type: physicochemical; settings: 6 g/l
Procedure: Dynamic surface tension was determined via the bubble pressure method (BP2100 tensiometer, Krüss).

[2] = Table 8, mefenpyr-diethyl SC formulation, no adjuvant
[3] = Table 9, mefenpyr-diethyl SC formulation, no adjuvant
[4] = Table 7, bixlozone standard SC formulation, no adjuvant
[5] = Table 19, bixlozone SC formulation, no adjuvant
[6] = Table 26, bixlozone EC formulation, no adjuvant
[7] = Table 24, Compound 3 WP20 formulation, cuticle from 2016, no adjuvant
[8] = Table 30, Compound 5 WP20 formulation, no adjuvant
[9] = Table 31, Compound 6 WP20 formulation, no adjuvant
[10] = Table 20, prohexadione-Ca EC formulation, no adjuvant
[11] = Table 12, Rinskor EC formulation, adjuvant 2 g/l

Molecule: CCOC(=O)C1=NN(c2ccc(Cl)cc2Cl)C(C)(C(=O)OCC)C1 (racemic) [Mefenpyr-diethyl, Diethyl (RS)-1-(2,4-dichlorophenyl)-4,5-dihydro-5-methyl-1H-pyrazole-3,5-dicarboxylate]
Cuticle penetration 12 h in % (cuticula of apple leaves; [2]): 4%
Cuticle penetration 24 h in % (cuticula of apple leaves; [2]): 9%
Cuticle penetration 48 h in % (cuticula of apple leaves; [2]): 16%
Cuticle penetration 24 h in % (cuticula of apple leaves; [3]): 17%
Cuticle penetration 48 h in % (cuticula of apple leaves; [3]): 59%

Cuticle penetration 6 h in % (cuticula of apple leaves; [4]): 21%
Cuticle penetration 12 h in % (cuticula of apple leaves; [4]): 42%
Cuticle penetration 24 h in % (cuticula of apple leaves; [4]): 62%
Cuticle penetration 24 h in % (cuticula of apple leaves; [5]): 24%
Cuticle penetration 48 h in % (cuticula of apple leaves; [5]): 73%
Cuticle penetration 6 h in % (cuticula of apple leaves; [6]): 27%
Cuticle penetration 12 h in % (cuticula of apple leaves; [6]): 29%
Cuticle penetration 24 h in % (cuticula of apple leaves; [6]): 31%
Molecule: CC1(C)CON(Cc2ccc(Cl)cc2Cl)C1=O [Bixlozone, 2-(2,4-Dichlorobenzyl)-4,4-dimethylisoxazolidin-3-one]

Cuticle penetration 12 h in % (cuticula of apple leaves; [7]): 0%
Cuticle penetration 24 h in % (cuticula of apple leaves; [7]): 0%
Cuticle penetration 48 h in % (cuticula of apple leaves; [7]): 0%
Molecule: NC(=O)c1ccc(C(F)(F)F)nc1O [Compound 3]

Cuticle penetration 12 h in % (cuticula of apple leaves; [8]): 6%
Cuticle penetration 24 h in % (cuticula of apple leaves; [8]): 14%
Cuticle penetration 48 h in % (cuticula of apple leaves; [8]): 52%
Molecule: Cc1ccc2c(c1)C(Nc1ncc(C(C)(C)O)cn1)[C@@H](C)C2 (stereo partly drawn) [Compound 5]

Cuticle penetration 12 h in % (cuticula of apple leaves; [9]): 0%
Cuticle penetration 24 h in % (cuticula of apple leaves; [9]): 0%
Cuticle penetration 48 h in % (cuticula of apple leaves; [9]): 2%
Molecule: Cc1ccc2c(c1)C(Nc1nc3n(n1)CCCCS3)CCC2 (stereo not drawn) [Compound 6]

Molecule: CCC(=O)C1=C([O-])CC(C(=O)[O-])CC1=O.[Ca+2] (stereo not drawn) [Prohexadione-Ca, Calcium 3-oxido-5-oxo-4-propionyl-cyclohex-3-enecarboxylate]
Cuticle penetration 24 h in % (cuticula of apple leaves; [10]): 18%
Cuticle penetration 48 h in % (cuticula of apple leaves; [10]): 44%

Molecule: Cn1nc(C(F)(F)F)c(CS(=O)(=O)C2=NOC(C)(C)C2)c1OC(F)F [Pyroxasulfone, 3-[5-(Difluoromethoxy)-1-methyl-3-(trifluoromethyl)pyrazol-4-ylmethylsulfonyl]-4,5-dihydro-5,5-dimethyl-1,2-oxazole]
Cuticle penetration 24 h in % (cuticula of apple leaves; apple, 24 h, 0.5 g/l): 2%

Molecule: CCCCOCCOP(=O)(OCCOCCCC)OCCOCCCC [TBEP, Tributoxyethyl phosphate]
Penetration enhancement (in words) (cuticula of apple leaves; bixlozone, summary of Table 7): shows distinctly lower uptake of bixlozone than TEHP
Penetration enhancement (in words) (cuticula of apple leaves; tembotrione (Laudis SC), summary of Tables 5 and 6): does not enhance the uptake of tembotrione

Molecule: CCCCC(CC)COP(=O)(OCC(CC)CCCC)OCC(CC)CCCC (stereo not drawn) [TEHP, Tris(2-ethylhexyl) phosphate]
Penetration enhancement (in words) (cuticula of apple leaves; mefenpyr-diethyl, summary of Tables 8 and 9): has better penetration-enhancing properties compared to TBEP in the combination
Dynamic surface tension 20 ms [1]: 71.7 mN/m
Dynamic surface tension 50 ms [1]: 71.7 mN/m
Dynamic surface tension 200 ms [1]: 71.6 mN/m
Dynamic surface tension 500 ms [1]: 71.5 mN/m

Molecule: CS(=O)(=O)c1ccc(C(=O)C2C(=O)CCCC2=O)c(Cl)c1COCC(F)(F)F [Tembotrione]
Cuticle penetration 6 h in % (cuticula of apple leaves; apple, 6 h, 0.5 g/l): 0%
Cuticle penetration 12 h in % (cuticula of apple leaves; apple, 12 h, 0.5 g/l): 0%

Cuticle penetration 24 h in % (cuticula of apple leaves; [11]): 5%
Cuticle penetration 48 h in % (cuticula of apple leaves; [11]): 15%
Molecule: Ammonium sulfate [AMS]
